In patent publication US20110053953A1, “AZA-Isoindolones and Their Use as Metabotropic Glutamate Receptor Potentiators - 613” (priority 2007, published 2011):

Target: T1, human mGluR2 (Homo sapiens, UniProt Q14416)
T1 construct: If the GTPgammaS assay was used: nothing is fused
Test: mGluR2 potentiator functional assays (FLIPR calcium mobilization or [35S]-GTPγS binding; not stated which)
Type: cell-based
Conditions: active in assays described herein; allosteric activator (potentiator) activity at mGluR2, assay not specified
From the text: The pharmacological properties of the compounds of the invention can be analyzed using standard assays for functional activity. Examples of glutamate receptor assays are well known in the art as described in, for example, Aramori et al., 1992, Neuron, 8:757; Tanabe et al., 1992, Neuron, 8:169; Miller et al., 1995, J. Neuroscience, 15:6103; Balazs, et al., 1997, J. Neurochemistry, 1997, 69:151. The methodology described in these publications is incorporated herein by reference. Conveniently, the compounds of the invention can be studied by means of an assay that measures the mobilization of intracellular calcium, [Ca^2+]i in cells expressing mGluR2.
Fluorometric Imaging Plate Reader (FLIPR) analysis was used to detect allosteric activators of mGluR2 via calcium mobilization. A clonal HEK 293 cell line expressing a chimeric mGluR2/CaR construct comprising the extracellular and transmembrane domains of human mGluR2 and the intracellular domain of the human calcium receptor, fused to the promiscuous chimeric protein G[…]qi5 was used. […]
FLIPR experiments were done using a laser setting of 0.8 W and a 0.4 second CCD camera shutter speed. […] An addition of test compound (0.01 μM to 30 μM in duplicate) was made after 10 seconds of baseline fluorescent readings were recorded on FLIPR. Fluorescent signals were then recorded for an additional 75 seconds at which point a second addition of DCG-IV (0.2 μM) was made and fluorescent signals were recorded for an additional 65 seconds. Fluorescent signals were measured as the peak height of the response within the sample period. Data was analyzed using Assay Explorer, and EC50 and Emax values (relative to maximum DCG-IV effect) were calculated using a four parameter logistic equation.
A [^35S]-GTPγS binding assay was used to functionally assay mGluR2 receptor activation. The allosteric activator activity of compounds at the human mGluR2 receptor were measured using a [^35S]-GTPγS binding assay with membranes prepared from CHO cells which stably express the human mGluR2. […]

T1 sequence (Q14416 19-819 limits assumed): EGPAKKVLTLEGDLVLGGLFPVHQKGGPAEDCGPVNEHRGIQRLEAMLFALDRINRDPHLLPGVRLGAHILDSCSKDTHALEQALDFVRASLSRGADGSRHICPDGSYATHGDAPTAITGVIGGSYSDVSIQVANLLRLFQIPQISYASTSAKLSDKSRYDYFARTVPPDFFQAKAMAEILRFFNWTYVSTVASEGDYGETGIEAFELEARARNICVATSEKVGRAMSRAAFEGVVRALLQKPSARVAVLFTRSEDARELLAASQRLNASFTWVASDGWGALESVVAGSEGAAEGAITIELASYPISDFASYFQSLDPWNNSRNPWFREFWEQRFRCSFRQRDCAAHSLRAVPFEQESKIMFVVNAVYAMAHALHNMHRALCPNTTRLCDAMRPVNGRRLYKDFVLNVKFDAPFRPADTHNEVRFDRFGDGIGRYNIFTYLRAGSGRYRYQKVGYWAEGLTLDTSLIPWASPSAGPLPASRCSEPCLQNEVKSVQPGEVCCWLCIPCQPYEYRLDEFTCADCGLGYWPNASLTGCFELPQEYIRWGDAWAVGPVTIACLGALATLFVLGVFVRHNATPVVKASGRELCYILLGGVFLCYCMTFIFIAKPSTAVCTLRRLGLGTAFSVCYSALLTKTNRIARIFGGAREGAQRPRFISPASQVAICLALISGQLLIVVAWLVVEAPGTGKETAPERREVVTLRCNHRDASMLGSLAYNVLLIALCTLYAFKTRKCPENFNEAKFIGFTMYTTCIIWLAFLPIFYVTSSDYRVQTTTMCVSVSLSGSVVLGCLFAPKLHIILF

EC50 | Compound
160 nM | Cc1nc(-c2cccc(N(S(C)(=O)=O)S(C)(=O)=O)c2)cc2c1C(=O)N(Cc1ccc(OC(F)(F)F)cc1)C2 [Compound 9, 6-(3-dimethylsulphanomidephenyl)-4-methyl-2-[4-(trifluoromethoxy)benzyl]-1,2-dihydro-3H-pyrrolo[3,4-c]pyridin-3-one]
1330 nM | Cc1nc(-c2cccc(NS(C)(=O)=O)c2)cc2c1C(=O)N(Cc1ccc(OC(F)(F)F)cc1)C2 [Compound 13, 6-(3-methylsulphanomidephenyl)-4-methyl-2-[4-(trifluoromethoxy)benzyl]-1,2-dihydro-3H-pyrrolo[3,4-c]pyridin-3-one]
670 nM | Cc1nc(-c2cccc(NC=O)c2)cc2c1C(=O)N(CC1CC1)C2 [Compound 20, {3-[2-(cyclopropylmethyl)-4-methyl-3-oxo-2,3-dihydro-1H-pyrrolo[3,4-c]pyridin-6-yl]phenyl}formamide]
